This note sets out measurements from patent US12630552B2, “Inhibitors of KRAS G12C” (BEIGENE, LTD., priority 2019, dated 2026).

For this test, the target named is T1, KRAS (aa 1-169) G12C, C51S, C80L, C118S (Homo sapiens, UniProt P01116, C118S/C51S/C80L/G12C).
T1 construct: The KRAS (aa 1-169) G12C, C51S, C80L, C118S with a His-tag; made in house
Description: KRAS G12C SOS1-mediated nucleotide exchange / GST-cRaf RBD binding FRET assay. Type of test: biochemical. To be noted: GDP-loaded KRAS G12C pre-incubated with compound at 24° C. for 3 hrs; SOS1, GTPγS and GST-cRaf RBD added; FRET 665 nm/620 nm. The protocol: Biochemical Functional Assay:
The KRAS (aa 1-169) G12C, C51S, C80L, C118S with a His-tag was expressed, purified and loaded with GDP in house. All protein and substrate solutions were prepared in assay buffer containing 25 mM HEPES pH7.5, 10 mM MgCl2, and 0.01% Triton X-100. Purified GDP-loaded KRAS (aa 1-169) G12C, C51S, C80L, C118S protein was pre-incubated with a serially diluted compound at 24° C. for 3 hrs. Purified SOS1 (aa 564-1049) protein, GTPγS (Sigma) and GST-cRaf RBD (aa 1-149) were then added to each well and incubated at 24° C. for additional 3 hrs. […] Following the incubation, Mab Anti-6HIS-Tb cryptate (Cisbio) and Mab Anti GST-XL665 (Cisbio) were added and further incubated at 24° C. for 3 hrs. The binding interaction between active GTPγS KRAS G12C and GST-cRaf RBD brings the Tb and XL665 into close proximity enabling an increased FRET signal (Ex337 nm, Em665 nm/620 nm). The inhibition percentage of nucleotide exchange reaction in presence of increasing concentrations of compounds was calculated based on the ratio of fluorescence at 665 nm to that at 620 nm detected on a BMG PHERAstar FSX instrument. The IC50 value of each compound was calculated from fitting the data to the four-parameter logistic model by Dotmatics.

T1 sequence (P01116 1-169 isoform P01116-2 G12C/C51S/C80L/C118S): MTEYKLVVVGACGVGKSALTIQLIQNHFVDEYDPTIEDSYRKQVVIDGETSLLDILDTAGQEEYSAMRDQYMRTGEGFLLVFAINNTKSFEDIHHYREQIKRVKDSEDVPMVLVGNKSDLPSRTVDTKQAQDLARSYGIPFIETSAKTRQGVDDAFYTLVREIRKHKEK

A word on the IC50: it is the concentration needed to halve the response being measured. For `C=CC(=O)N1CCN(c2nc(OC[C@@H]3CCCN3C)nc3c2CN(Cc2cc(O)cc4ccccc24)C3)C[C@@H]1CC#N` [Example 25, 2-((S)-1-acryloyl-4-(6-((3-hydroxynaphthalen-1-yl)methyl)-2-(((S)-1-methylpyrrolidin-2-yl)methoxy)-6,7-dihydro-5H-pyrrolo[3,4-d]pyrimidin-4-yl)piperazin-2-yl)acetonitrile], the IC50 amounted to 3.27 nM.

As to `C=CC(=O)N1CCN(c2nc(OC[C@@H]3CCCN3C)nc3c2CN(c2ccc4ccccc4c2)C3)C[C@@H]1CC#N` [Example 26], the IC50 amounted to 1080 nM. For `C=CC(=O)N1CCN(c2nc(OC[C@@H]3CCCN3C)nc3c2CN(c2cccc4c2CCC4)C3)C[C@@H]1CC#N` [Example 27, 2-((S)-1-acryloyl-4-(6-(2,3-dihydro-1H-inden-4-yl)-2-(((S)-1-methylpyrrolidin-2-yl)methoxy)-6,7-dihydro-5H-pyrrolo[3,4-d]pyrimidin-4-yl)piperazin-2-yl)acetonitrile] the value was 3720 nM; for `C=CC(=O)N1CCN(c2nc(OC[C@@H]3CCCN3C)nc3c2CN(c2cccc4cccc(C)c24)C3)C[C@@H]1CC#N` [Example 28, 2-((S)-1-acryloyl-4-(6-(8-methylnaphthalen-1-yl)-2-(((S)-1-methylpyrrolidin-2-yl)methoxy)-6,7-dihydro-5H-pyrrolo[3,4-d]pyrimidin-4-yl)piperazin-2-yl)acetonitrile], 178 nM.

As for `C=CC(=O)N1CCN(c2nc(OC[C@@H]3CCCN3C)nc3c2CN(C(=O)c2cc(O)cc4ccccc24)C3)C[C@@H]1CC#N` [Example 29, 2-((S)-1-acryloyl-4-(6-(3-hydroxy-1-naphthoyl)-2-(((S)-1-methylpyrrolidin-2-yl)methoxy)-6,7-dihydro-5H-pyrrolo[3,4-d]pyrimidin-4-yl)piperazin-2-yl)acetonitrile], the concentration for half-maximal inhibition (IC50) came to 2.42 nM. As for `C=CC(=O)N1CCN(c2nc(OC[C@@H]3CCCN3C)nc3c2CN(C(=O)c2cccc4cccc(Cl)c24)C3)C[C@@H]1CC#N` [Example 30, 2-((S)-1-acryloyl-4-(6-(8-chloro-1-naphthoyl)-2-(((S)-1-methylpyrrolidin-2-yl)methoxy)-6,7-dihydro-5H-pyrrolo[3,4-d]pyrimidin-4-yl)piperazin-2-yl)acetonitrile], the IC50 was 15 nM. Regarding `C=CC(=O)N1CCN(c2nc(OC[C@@H]3CCCN3C)nc3c2CN(C(=O)c2c(C)ccc4[nH]ncc24)C3)C[C@@H]1CC#N` [Example 31, 2-((S)-1-acryloyl-4-(6-(5-methyl-1H-indazole-4-carbonyl)-2-(((S)-1-methylpyrrolidin-2-yl)methoxy)-6,7-dihydro-5H-pyrrolo[3,4-d]pyrimidin-4-yl)piperazin-2-yl)acetonitrile], the IC50 was 301 nM.

Regarding `C=CC(=O)N1CCN(c2nc(OC[C@@H]3CCCN3C)nc3c2CN(C(=O)c2cccc4ccccc24)C3)C[C@@H]1CC#N` [Example 32, 2-((S)-4-(6-(1-naphthoyl)-2-(((S)-1-methylpyrrolidin-2-yl)methoxy)-6,7-dihydro-5H-pyrrolo[3,4-d]pyrimidin-4-yl)-1-acryloylpiperazin-2-yl)acetonitrile], the IC50 turned out to be 39.5 nM. In the case of `C=CC(=O)N1CCN(c2nc(OC[C@@H]3CCCN3C)nc3c2CN(C(=O)c2cccc4cccc(C)c24)C3)C[C@@H]1CC#N` [Example 33, 2-((S)-1-acryloyl-4-(6-(8-methyl-1-naphthoyl)-2-(((S)-1-methylpyrrolidin-2-yl)methoxy)-6,7-dihydro-5H-pyrrolo[3,4-d]pyrimidin-4-yl)piperazin-2-yl)acetonitrile] it was 22.4 nM; in that of `C=CC(=O)N1CCN(c2nc(OC[C@@H]3CCCN3C)nc3c2CN(C(=O)c2c(C)ccc4ccccc24)C3)C[C@@H]1CC#N` [Example 34, 2-((S)-1-acryloyl-4-(6-(2-methyl-1-naphthoyl)-2-(((S)-1-methylpyrrolidin-2-yl)methoxy)-6,7-dihydro-5H-pyrrolo[3,4-d]pyrimidin-4_yl)piperazin-2-yl)acetonitrile], 505 nM.
